The values below come from ChEMBL document CHEMBL1144649, “2-cyanoaminopyrimidines as a class of antitumor agents that promote tubulin polymerization” (Bioorg Med Chem Lett, 2007).

In one data set the test system is COLO 205. In words: Cytotoxicity against COLO205 cells. To be noted: Homo sapiens. Format: functional, cell-based.
The nature of data set [1]: Solubility in water at pH 7.4. Format: physicochemical.
The nature of data set [2]: Stability in nude mouse microsomes after 30 mins. The data set is classed as ADME, Microsome. To be noted: read-out: Stability.
Data set [3] relates to KB. In words: Antiproliferative activity against KB cells. To be noted: Homo sapiens. Format: functional, cell-based.
Data set [4] can be described thus: Antiproliferative activity against KB8.5 cells. Conditions: Homo sapiens. Format: functional, cell-based.
Data set [5] in a line: Antiproliferative activity against KBV1cells. The data set is classed as functional, cell-based. To be noted: Homo sapiens, KB-V1.
Data set [6] has as its system KB. As to the kind of experiment: Ratio of IC50 for KB8.5 cells to IC50 for KB cells. The data set is classed as functional, Homo sapiens.
For data set [7], the target named is T1, Tubulin (Homo sapiens) (UniProt P68371+Q9H4B7+P0DPH7+P68366+Q13509+Q71U36+P04350+Q3ZCM7+P07437+P68363+Q9BQE3+Q6PEY2+Q13885+Q9BVA1+Q9BUF5). In words: Stimulation of MAP-rich tubulin polymerization. Format: protein-complex assay.
Data set [8] has as its target T1, Tubulin (Homo sapiens). As to the kind of experiment: Stimulation of tubulin polymerization. Format: protein-complex assay.
Data set [9] in a line: Ratio of IC50 for KB V1 cells to IC50 for KB cells.

Calls of active or inactive are those of the source. No cut-off for these calls is given here.

For `C[C@H](Nc1nc(N(C)C#N)nc(Cl)c1-c1c(F)cc(OCCCN(C)C)cc1F)C(F)(F)F`, the IC50 in the data set on COLO 205 came out at 36 nM; with KB [3], 24 nM; in data set [4], 59 nM; in data set [5], 82 nM. In addition, the solubility in data set [1] is greater than 100 µg/mL. Besides, the remaining at 0.5 h in [2] worked out at 92%. In addition, the “Ratio IC50” value came to 2.5 with KB [6] and 3.5 in [9]. For the same compound, the result on Tubulin (Homo sapiens) [7] and on Tubulin (Homo sapiens) [8] was Active.

With `C=CCN(C#N)c1nc(Cl)c(-c2c(F)cc(F)cc2F)c(NCC(F)(F)F)n1`, the midpoint of inhibition with COLO 205, the IC50, lay at 477 nM.

Turning to `CN(C#N)c1nc(Cl)c(-c2c(F)cc(F)cc2F)c(NCC(F)(F)F)n1`, the IC50 in the data set with COLO 205 is 214 nM.

As for `CC[C@]1(O)C[C@H]2CN(CCc3c([nH]c4ccccc34)[C@@](C(=O)OC)(c3cc4c(cc3OC)N(C=O)[C@H]3[C@@](O)(C(=O)OC)[C@H](OC(C)=O)[C@]5(CC)C=CCN6CC[C@]43[C@@H]65)C2)C1` [VINCRISTINE], the IC50 in data set [4] was 58 nM; in data set [5], 2040 nM. Further, the “Ratio IC50” value is 26 in the data set on KB [6] and 925 in data set [9].

Turning to `CNCCCOc1cc(F)c(-c2c(Cl)nc3ncnn3c2N[C@@H](C)C(F)(F)F)c(F)c1.Cl`, in [4], the midpoint of inhibition, the IC50, lay at 67 nM. For the same compound, the “Ratio IC50” value in the data set on KB [6] is reported as 2.9.

In the case of `CN(C)CCOc1cc(F)c(-c2c(Cl)nc(N(C)C#N)nc2NCC(F)(F)F)c(F)c1`, 532 nM corresponded to half-maximal inhibition with COLO 205 (IC50).

The compound `CN(C)CCCOc1cc(F)c(-c2c(Cl)nc(N(C)C#N)nc2NCC(F)(F)F)c(F)c1` yielded an IC50 with COLO 205 of 52 nM.

`CCN(C#N)c1nc(Cl)c(-c2c(F)cc(F)cc2F)c(NCC(F)(F)F)n1`: inhibition in the data set with COLO 205 was half-maximal at 304 nM (IC50).

`CC(=O)O[C@H]1C(=O)[C@@]2(C)[C@H]([C@H](OC(=O)c3ccccc3)[C@]3(O)C[C@H](OC(=O)[C@H](O)[C@@H](NC(=O)c4ccccc4)c4ccccc4)C(C)=C1C3(C)C)[C@]1(OC(C)=O)CO[C@@H]1C[C@@H]2O` [PACLITAXEL] returned a concentration for half-maximal inhibition (IC50) in data set [5] of 2010 nM.

In the case of `CN(C)CCCCOc1cc(F)c(-c2c(Cl)nc(N(C)C#N)nc2NCC(F)(F)F)c(F)c1`, 229 nM corresponded to half-maximal inhibition in the data set with COLO 205 (IC50).
